Results from patent publication US20090036509A1, “N-(Ortho-Phenyl)-1-Methyl -3-Trifluoromethlpyrazole-4-Carboxanilides and Their Use as Fungicides” (BASF Aktiengesellschaft, priority 2004, published 2009).

Columns and labels:
[1] = test system: Botrytis cinerea; assay: Activity against gray mold on bell pepper leaves caused by Botrytis cinerea, protective application; format: in vivo; details: visual rating after 5 days, untreated 90%
Description: The active compounds were prepared as a stock solution with 25 mg of active compound which was made up to 10 ml with a mixture of acetone and/or DMSO and the emulsifier Uniperol® EL (wetting agent having emulsifying and dispersing action based on ethoxylated alkyl phenols) in a volume ratio solvent/emulsifier of 99 to 1. The solution was then made up to 100 ml with water. This stock solution was diluted to the active compound concentrations stated below using the solvent/emulsifier/water mixture described. Activity Against Gray Mold on Bell Pepper Leaves Caused by Botrytis Cinerea Protective Application Bell pepper seedlings of the cultivar “Neusiedler Ideal Elite” were, after 2-3 leaves were well developed, sprayed to runoff point with an aqueous suspension having the concentration of active compounds stated below. The next day, the treated plants were inoculated with a spore suspension of Botrytis cinerea which contained 1.7×10^6 spores/ml in a 2% strength aqueous biomalt solution. The test plants were then placed in a dark climatized chamber at 22-24° C. and high atmospheric humidity. After 5 days, the extent of the fungal infection on the leaves could be determined visually in %. […]

[2] = test system: Puccinia recondita; assay: Curative activity against brown rust of wheat caused by Puccinia recondita; format: in vivo; details: wheat seedlings sprayed 1 day after inoculation, rated after 7 days, untreated 90%; for Infection in % at 4 ppm using PUCCRT K1: Use Example 2
Description: The active compounds were prepared as a stock solution with 25 mg of active compound which was made up to 10 ml with a mixture of acetone and/or DMSO and the emulsifier Uniperol® EL (wetting agent having emulsifying and dispersing action based on ethoxylated alkyl phenols) in a volume ratio solvent/emulsifier of 99 to 1. The solution was then made up to 100 ml with water. This stock solution was diluted to the active compound concentrations stated below using the solvent/emulsifier/water mixture described. Curative Activity Against Brown Rust of Wheat Caused by Puccinia Recondita Leaves of potted wheat seedlings of the cultivar “Kanzler” were inoculated with a spore suspension of brown rust (Puccinia recondita). The pots were then placed in a chamber with high atmospheric humidity (90 to 95%) and at 20-22° C. for 24 hours. During this time, the spores germinated and the germ tubes penetrated into the leaf tissue. The next day, the infected plants were sprayed to runoff point with an aqueous suspension having the concentration of active compounds stated below. The suspension or emulsion was prepared as described above. After the spray coating had dried on, the test plants were cultivated in a greenhouse at temperatures between 20 and 22° C. and at 65 to 70% relative atmospheric humidity for 7 days. The extent of the rust fungus development on the leaves was then determined. Curative Activity Against Brown Rust of Wheat Caused by Puccinia Recondita Leaves of potted wheat seedlings of the cultivar “Kanzler” were inoculated with a spore suspension of brown rust (Puccinia recondita). The pots were then placed in a chamber with high atmospheric humidity (90 to 95%) and at 20-22° C. for 24 hours During this time, the spores germinated and the germ tubes penetrated into the leaf tissue. The next day, the infected plants were sprayed to runoff point with an aqueous suspension having the concentration of active compounds stated below. The suspension or emulsion was prepared as described above. After the spray coating had dried on, the test plants were cultivated in a greenhouse at temperatures between 20 and 22° C. and at 65 to 70% relative atmospheric humidity for 7 days. The extent of the rust fungus development on the leaves was then determined. Curative Activity Against Brown Rust of Wheat Caused by Puccinia Recondita Leaves of potted wheat seedlings of the cultivar “Kanzler” were inoculated with a spore suspension of brown rust (Puccinia recondita). The pots were then placed in a chamber with high atmospheric humidity (90 to 95%) and at 20-22° C. for 24 hours. During this time, the spores germinated and the germ tubes penetrated into the leaf tissue. The next day, the infected plants were sprayed to runoff point with an aqueous suspension having the concentration of active compounds stated below. The suspension or emulsion was prepared as described above. After the spray coating had dried on, the test plants were cultivated in a greenhouse at temperatures between 20 and 22° C. and at 65 to 70% relative atmospheric humidity for 7 days. The extent of the rust fungus development on the leaves was then determined.

[3] = Use Example 4, bell pepper seedlings sprayed 1 day before inoculation
[4] = Use Example 1, bell pepper seedlings sprayed 1 day before inoculation

Cc1cc(Cl)ccc1-c1ccccc1NC(=O)c1cn(C)nc1C(F)(F)F [67.8]
Infection in % at 4 ppm using BOTRCI P1 [1, 3]: 0%
Infection in % at 250 ppm using PUCCRT K1 ([2]; Use Example 5): 0%

Cn1cc(C(=O)Nc2ccccc2-c2ccc(F)cc2)c(C(F)(F)F)n1 [Comp. 37of EP-A05 89 301]
Infection in % at 4 ppm using BOTRCI P1 [1, 4]: 70%
Infection in % at 4 ppm using PUCCRT K1 [2]: 30%

COc1ccc(-c2ccccc2NC(=O)c2cn(C)nc2C(F)(F)F)cc1 [Comp. 38of EP-A05 89 301]
Infection in % at 250 ppm using PUCCRT K1 ([2]; Use Example 3): 60%

Cc1ccccc1-c1ccccc1NC(=O)c1cn(C)nc1C(F)(F)F [Comp. 41of EP-A05 89 301]
Infection in % at 4 ppm using BOTRCI P1 [1, 3]: 25%
Infection in % at 250 ppm using PUCCRT K1 ([2]; Use Example 5): 60%

Cn1cc(C(=O)Nc2ccccc2-c2ccc(F)c(F)c2)c(C(F)(F)F)n1 [Comp. 67.4]
Infection in % at 4 ppm using BOTRCI P1 [1, 4]: 40%
Infection in % at 4 ppm using PUCCRT K1 [2]: 5%

COc1ccc(-c2ccccc2NC(=O)c2cn(C)nc2C(F)(F)F)c(F)c1 [Comp. 67.14]
Infection in % at 250 ppm using PUCCRT K1 ([2]; Use Example 3): 7%
